Measurements: paper PMC8270334, “Design, Sustainable Synthesis and Biological Evaluation of a Novel Dual α2A/5-HT7 Receptor Antagonist with Antidepressant-Like Properties” (Molecules, 2021)

system: Albino Swiss mice; assay: forced swim test; assay type: in vivo; details: ip, 30 min before test
Method: Adult male Albino Swiss mice (CD-1, 8 weeks old, 25–30 g: Jagiellonian University Medical College, Krakow, Poland) were used in the study. Animals were housed in groups of 8 in a transparent plastic cage (382 × 220 × 150 mm) at room temperature (22 ± 2 °C), on a 12 h light/dark cycle with ad libitum access to food and water. Mice were handled for one week before starting the experimental procedures. The separate groups of animals were used in the forced swim test and in the locomotor studies. All studies were approved by the Institutional Animal Care and Ethics Committee of the Jagiellonian University (approval no.: 80/2015). […] Tested compounds were dissolved with 1% Tween 80. […] The control animals were given ip injections of the 2% DMSO in 1% Tween 80 (vehicle). The volume of vehicle or drug solutions was 10 mL/kg. The experiment was performed on mice according to the method previously described. Mice were forced to swim individually in the glass cylinders (height 25 cm, diameter 10 cm) filled with water at 24 ± 1 °C to a depth of 10 cm and left there for 6 min. Following a 2 min habituation period, total time spent immobile was recorded over the next 4 min. The animal was regarded as immobile when it remained floating passively in the water, making only small movements to keep its head above the water.

| Structure (SMILES) | active dose in FST (antidepressant-like effect) [mg/kg] |
| --- | --- |
| CN1CCN2c3ncccc3Cc3ccccc3C2C1 (centres unmarked) [Mirtazapine, reference compound] | 16 |

target: T1, human 5-HT7b receptor (Homo sapiens, UniProt P34969); assay: radioligand binding, [3H]-5-CT displacement at 5-HT7R in HEK293 cells; details: read-out: Ki [nM] ± SEM 5-HT7
T1 construct: expressed in transfected cells; host or cells: HEK293
T1 sequence (P34969 1-432): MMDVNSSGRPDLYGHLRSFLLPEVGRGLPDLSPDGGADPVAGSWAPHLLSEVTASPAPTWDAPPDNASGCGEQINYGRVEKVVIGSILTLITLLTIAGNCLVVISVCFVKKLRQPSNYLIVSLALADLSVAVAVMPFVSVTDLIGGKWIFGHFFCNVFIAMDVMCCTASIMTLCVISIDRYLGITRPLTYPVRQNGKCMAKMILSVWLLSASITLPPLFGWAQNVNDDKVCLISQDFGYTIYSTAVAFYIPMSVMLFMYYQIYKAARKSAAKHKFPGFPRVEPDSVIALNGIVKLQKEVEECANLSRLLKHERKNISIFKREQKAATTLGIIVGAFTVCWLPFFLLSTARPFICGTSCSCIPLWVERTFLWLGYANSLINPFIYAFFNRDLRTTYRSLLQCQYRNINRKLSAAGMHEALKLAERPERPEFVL
Method: All experiments were performed using HEK293 cells stably expressing human 5-HT1A, 5-HT6, 5-HT7b, and D2L receptors or CHO-K1 cells with a plasmid containing the human 5-HT2A receptor coding sequence (PerkinElmer, Waltham, MA, USA), according to previously reported procedures. Cells were cultured in 150 cm^2 flasks and, after reaching a 90% confluence, were washed with PBS and the centrifugated (200 g) in PBS containing 0.1 mM EDTA and 1 mM dithiothreitol. Cell pellets were subsequently homogenized (in Ultra Turrax tissue homogenizer) and centrifugated twice (35,000× g for 15 min at 4 °C), with 15 min incubation at 37 °C between the centrifugations. All assays were incubated in dedicated buffers and in a total volume of 200 µL in 96-well microtitre plates for 1 h at 37 °C, except for 5-HT1AR and 5-HT2AR that was incubated for 1 h at room temperature. The process of equilibration is terminated by rapid filtration through Unifilter-96 (PerkinElmer) plates with a 96-well cell harvester and radioactivity retained on the filters was quantified on a Microbeta plate reader (PerkinElmer, USA). For displacement studies, the following assay samples containing the proper radioligand were used: 2.5 nM [^3H]-8-OH-DPAT (PerkinElmer, #NET929001MC) for 5-HT1AR; 1 nM [^3H]-ketanserin (PerkinElmer, #NET791250UC) for 5-HT2AR; 2 nM [^3H]-LSD (PerkinElmer, #NET638250UC) for 5-HT6R; and 0.8 nM [^3H]-5-CT (PerkinElmer, #NET1188U100UC) for 5-HT7R or 2.5 nM [^3H]-raclopride (PerkinElmer, #NET975001MC) for D2LR. Non-specific binding was determined using 10 μM 5-HT for 5-HT1AR and 5-HT7R, 20 μM mianserin for 5-HT2AR, 10 μM methiothepine for 5-HT6R, and 10 μM haloperidol for D2LR. […] Results were expressed as means of at least three separate experiments.

| Structure (SMILES) | Ki [nM] |
| --- | --- |
| COc1ccc(OC)c(S(=O)(=O)NC2CCN(CCOc3cccc4c3OC(C)(C)C4)CC2)c1 [Compound 10, 2,5-Dimethoxy-N-{1-[2-(2,2-dimethyl-2,3-dihydrobenzofuran-7-yloxy)ethy]piperidin-4-yl}benzenesulfonamide] | 95 ± 18 |
| CC1(C)Cc2cccc(OCCN3CCC(NS(=O)(=O)c4cccc(Cl)c4)CC3)c2O1 [Compound 7, 3-Chloro-N-{1-[2-(2,2-dimethyl-2,3-dihydrobenzofuran-7-yloxy)ethyl]piperidin-4-yl}benzenesulfonamide] | 64 ± 15 |
| CC1(C)Cc2cccc(OCCN3CCC(NS(=O)(=O)c4cccc5ccccc45)CC3)c2O1 [Compound 11, 1-Naphthalene-N-{1-[2-(2,2-dimethyl-2,3-dihydrobenzofuran-7-yloxy)ethyl]piperidin-4-yl}sulfonamide] | 50 ± 16 |
| COc1ccc(Cl)cc1S(=O)(=O)NC1CCN(CCOc2cccc3c2OC(C)(C)C3)CC1 [Compound 9, 5-Chloro-2-methoxy-N-{1-[2-(2,2-dimethyl-2,3-dihydrobenzofuran-7-yloxy)ethyl]piperidin-4-yl}benzenesulfonamide] | 86 ± 26 |
| CC1(C)Cc2cccc(OCCN3CCC(NS(=O)(=O)c4ccc5ccccc5c4)CC3)c2O1 [Compound 12, 2-Naphthalene-N-{1-[2-(2,2-dimethyl-2,3-dihydrobenzofuran-7-yloxy)ethyl]piperidin-4-yl}sulfonamide] | 67 ± 21 |

Continued, values first:

| Ki [nM] | Structure (SMILES) |
| --- | --- |
| 387 ± 58 | CC1(C)Cc2cccc(OCCN3CCC(CNS(=O)(=O)c4cncc5ccccc45)CC3)c2O1 [Compound 19, 4-Isoquinoline-N-({1-[2-(2,2-dimethyl-2,3-dihydrobenzofuran-7-yloxy)ethyl]piperidin-4-yl}methyl)sulfonamide] |
| 366 ± 69 | CC1(C)Cc2cccc(OCCN3CCC(CNS(=O)(=O)c4cccc5ccccc45)CC3)c2O1 [Compound 18, 1-Naphthalene-N-({1-[2-(2,2-dimethyl-2,3-dihydrobenzofuran-7-yloxy)ethyl]piperidin-4-yl}methyl)sulfonamide] |
| 664 ± 82 | CC1(C)Cc2cccc(OCCN3CCC(CNS(=O)(=O)c4cccc(Cl)c4)CC3)c2O1 [Compound 15, 3-Chloro-N-({1-[2-(2,2-dimethyl-2,3-dihydrobenzofuran-7-yloxy)ethyl]piperidin-4-yl}methyl)benzenesulfonamide] |
| 316 ± 73 | CC1(C)Cc2cccc(OCCN3CCC(CNS(=O)(=O)c4cc(Cl)ccc4F)CC3)c2O1 [Compound 16] |
| 727 ± 65 | CC1(C)Cc2cccc(OCCN3CCC(CNS(=O)(=O)c4ccc(F)cc4)CC3)c2O1 [Compound 14, 4-Fluoro-N-({1-[2-(2,2-dimethyl-2,3-dihydrobenzofuran-7-yloxy)ethyl]piperidin-4-yl}methyl)benzenesulfonamide] |
| 488 ± 70 | COc1ccc(Cl)cc1S(=O)(=O)NCC1CCN(CCOc2cccc3c2OC(C)(C)C3)CC1 [Compound 17, 5-Chloro-2-methoxy-N-({1-[2-(2,2-dimethyl-2,3-dihydrobenzofuran-7-yloxy)ethyl]piperidin-4-yl}methyl)benzenesulfonamide] |

target: T1, human 5-HT7b receptor; assay: not given; details: Figure 1, earlier lead; read-out: Ki (5-HT7R); cited from earlier work

| Structure (SMILES) | Ki [nM] |
| --- | --- |
| CC(C)Oc1ccccc1OCCN1CCC(NS(=O)(=O)c2ccc(F)cc2)CC1 [PZ-971] | 21 |

system: Albino Swiss mice; assay: spontaneous locomotor activity; assay type: in vivo; details: ip, doses effective in the FST (6: 4, 8 mg/kg; mirtazapine: 16 mg/kg)
Method: Adult male Albino Swiss mice (CD-1, 8 weeks old, 25–30 g: Jagiellonian University Medical College, Krakow, Poland) were used in the study. Animals were housed in groups of 8 in a transparent plastic cage (382 × 220 × 150 mm) at room temperature (22 ± 2 °C), on a 12 h light/dark cycle with ad libitum access to food and water. Mice were handled for one week before starting the experimental procedures. The separate groups of animals were used in the forced swim test and in the locomotor studies. All studies were approved by the Institutional Animal Care and Ethics Committee of the Jagiellonian University (approval no.: 80/2015).
Tested compounds were dissolved with 1% Tween 80. […] The control animals were given ip injections of the 2% DMSO in 1% Tween 80 (vehicle). The volume of vehicle or drug solutions was 10 mL/kg.
Locomotor activity was recorded with an Opto M3 multichannel activity monitor, photoresistor actometers connected to a counter for the recording of light-beam interruptions (MultiDevice Software v1.3, Columbus Instruments, Columbus, OH, USA). The mice, after being placed into the cages individually, had their activity evaluated between the 2nd and the 6th minute. The chosen time period corresponded with the time interval considered in the FST. Spontaneous locomotor activity was evaluated as the distance travelled plus the movements of climbing by animals.

| Structure (SMILES) | influence on spontaneous locomotor activity (sedation) |
| --- | --- |
| CN1CCN2c3ncccc3Cc3ccccc3C2C1 (centres unmarked) [Mirtazapine, reference compound] | induced sedation |
